Structures are written as SMILES.

The LD50 is the dose expected to kill half of the subjects tested.

The subject of series [1] is indomethacin-induced ulcers on the gastric mucosa. In words: Indomethacin-induced ulcer (antiulcerogenic activity). In kind it is in vivo, male Donryu rats. As to conditions: Rattus norvegicus, 7 h; indomethacin 15 mg/kg s.c.; test compound 300 mg/kg oral, 10 minutes prior; hydrochlorides except one quaternary ammonium salt; read-out: Prevention ratio. As for the experimental part: After fasting for 24 hours, male Donryu rats weighing 210 to 230 grams were administered subcutaneously with indomethacin suspended in 1% aqueous solution of carboxymethylcellulose at a dosage level of 15 mg/kg. Seven hours later, the animals were sacrificed by ether inhalation. The rat stomach was cut open and the indomethacin-induced ulcers appearing on the gastric mucosa were measured for their length in mm. The total length of ulcers per animal was designated as the ulcer index. The farnesylacetic acid ester derivatives (test compounds) prepared by any of the synthetic procedures described above and geranyl farnesylacetate as a control were orally administered 10 minutes prior to the indomethacin administration. The antiulcerogenic activity was evaluated in terms of the prevention ratio, i.e. the quotient of the difference in ulcer index between the test compound group and the control group divided by the ulcer index for the control group. The numbers in the test compound column are those previously assigned to the exemplary compounds of the present invention each represented by a structural formula, and the example numbers are the numbers of examples wherein preparation of the corresponding compounds is described. The test compounds were all hydrochlorides except for one quaternary ammonium salt.

Series [2] relates to stress ulcer on the gastric gland. In words: Stress ulcer (water immersion restraint). In kind it is in vivo, male Donryu rats. As to conditions: 300 mg/kg oral, 10 minutes before immersion; 23° C. water, seven hours; hydrochlorides. As for the experimental part:
Male Donryu rats weighing 240-260 grams were immobilized in wire cages (cf. Japanese Journal of Pharmacology, 18, 9-18 (1968)) and placed under stress by immersing them in water at 23° C. to the level of the breast. Seven hours later, the animals were taken up from the water tank and immediately sacrificed by blowing and the stomach was excised. The stomach was inflated with 1% formalin and then cut open and the ulcer on the gastric gland were measured for length in mm. The total ulcer length per animal was designated as the ulcer index. In the above-mentioned test, the compounds (hydrochlorides) (test compounds (1) and (4)) prepared by the procedure of Examples 1 and 2, respectively and geranyl farnesylacetate were administered orally to the rats 10 minutes before the immersion. In the Table, the prevention ratio has the same meaning as defined for the indomethacin-induced ulcer in Example 16.

Series [3] can be described thus: Acute toxicity--1 (oral, rats). In kind it is in vivo. As to conditions: rat, in vivo, Wistar rats, observation 2 weeks, hydrochlorides. As for the experimental part: (§1) Wistar rats, five weeks of age, were fed previously for one week and then subjected to the test. All the test compounds were administered orally. The observation period was 2 weeks. The test compounds (4), (1) and (16) used were the products prepared in the above Examples 2, 1 and 8, respectively, and were all in the form of hydrochlorides.

The test system of series [4] is Wistar rats. In words: Acute toxicity--1 (oral, rats). In kind it is in vivo. To be noted: rats. As for the experimental part:
as §1

Series [5] is described as follows: Acute toxicity--2 (oral, mice). In kind it is in vivo. As to conditions: mouse, in vivo, ddY mice, observation one week, hydrochlorides. Here is the method:
(§2) Five-week-old ddY mice were fed previously for one week and then subjected to the test. All the test compounds were administered orally and the observation period was one week. The test compounds (23), (7) and (13) used were the products of the above Example 5, 10 and 4, respectively and were all in the form of hydrochlorides (the product of Example 10 was converted into the hydrochloride by a conventional method).

Series [6] concerns ddY mice. In words: Acute toxicity--2 (oral, mice). In kind it is in vivo. As to conditions: mice. As for the experimental part: as §2
The nature of series [7]: Aqueous solution of hydrochloride. In kind it is physicochemical. As to conditions: in water. As for the experimental part:
Using the lower alkyl esters of farnesylacetic acids shown in Table 1 and the amino alcohols also shown in Table 1, ester exchange reaction was carried out by the procedure of Example 1, to prepare a variety of amine-nitrogen-containing farnesylacetic acid esters and hydrochlorides thereof. In the chemical formula appearing in the table, P stands for a prenyl group, G a geranyl group and F a farnesyl group.

In series [8] the test system is rats. To be noted: cited from earlier work.
The subject of series [9] is mice. As to conditions: cited from earlier work.
The test system of series [10] is ulcers. To be noted: known compounds, prior art; cited from earlier work.

With `CCN(CC)CCOC(=O)CCC=C(C)CCC=C(C)CCC=C(C)C` [(1), 2-diethylaminoethyl farnesylacetate], the inhibition in vivo at 300 mg/kg in series [1] came to 64.1%. Besides, the Prevention ratio in [2] was determined as 42.1%. In addition, the median lethal dose (LD50) at 336 h in [3] was greater than 5400 mg/kg. The “Number of dead animals/number of animals used” value in series [4] (dose 4.1 g/kg) and in [4] (dose 5.4 g/kg) was 0/5 throughout.

Consider `CC[N+](CC)(CC)CCOC(=O)CCC=C(C)CCC=C(C)CCC=C(C)C` [(2), farnesylacetoxyethyltriethylammonium bromide], for which, in series [1], the inhibition in vivo at 300 mg/kg came out at 68.8%.

Take `CC(C)=CCCC(C)=CCCC(C)=CCCC(=O)OCCCN(C)C` [(4), 3-Dimethylaminopropyl farnesylacetate]: in [1], the inhibition in vivo at 300 mg/kg is 65.8%. In addition, the Prevention ratio in series [2] is 40.1%. Moreover, in series [3], the LD50 at 336 h was greater than 4000 mg/kg. Moreover, the “Number of dead animals/number of animals used” value in [4] (dose 3 g/kg) and in series [4] (dose 4 g/kg) was 0/5 throughout.

As for `CC(C)=CCCC(C)=CCCC(C)=CCCC(=O)OC(C)(C)CN(C)C` [(7), 1,1-dimethyl-2-dimethylaminoethyl farnesylacetate], the inhibition in vivo at 300 mg/kg in [1] was 91.7%. Moreover, the 50% lethal dose (LD50) at 168 h in series [5] stood at 8400 mg/kg. In addition, the “Number of dead animals/number of animals used” value in series [6] (dose 6 g/kg) is 0/4; in [6] (dose 8 g/kg), 1/3; in [6] (dose 10 g/kg), 3/3.

Consider `CC(C)=CCCC(C)=CCCC(C)=CCCC(=O)OCCN(CC=C(C)CCC=C(C)C)CC=C(C)CCC=C(C)C` [(13)], for which the inhibition in vivo at 300 mg/kg in series [1] was found to be 81.3%. Moreover, the LD50 at 168 h in series [5] worked out at 7000 mg/kg. In addition, the “Number of dead animals/number of animals used” value in series [6] (dose 1 g/kg) is reported as 0/3; in series [6] (dose 2 g/kg), 1/3; in series [6] (dose 6 g/kg), 2/3; in series [6] (dose 10 g/kg), 2/3; in series [6] (dose 20 g/kg), 3/3. For the same molecule, in series [7], the “Appearance of aqueous solution of hydrochloride (water solubility)” value is listed as “Insoluble”.

With `CCN(CCOC(=O)CCC=C(C)CCC=C(C)CCC=C(C)C)c1ccccc1` [(14)], in [1], the inhibition in vivo at 300 mg/kg was found to be 70.2%. Further, the “Appearance of aqueous solution of hydrochloride (water solubility)” value in series [7] is reported as “Insoluble”.

Regarding `CC(C)=CCCC(C)=CCCC(C)=CCC(Cc1ccccc1)C(=O)OCCN(C)C` (stereo not shown) [(16)], in series [1], the inhibition in vivo at 300 mg/kg turned out to be 84.5%. The same molecule showed a 50% lethal dose (LD50) at 336 h in [3] greater than 15000 mg/kg. Also, the figures for the “Number of dead animals/number of animals used” value in [4] (dose 5 g/kg), in series [4] (dose 10 g/kg) and in [4] (dose 15 g/kg) were 0/5, 1/5 and 1/5, respectively.

As for `CC(C)=CCCC(C)=CCCC(C)=CCCC(=O)OCCN1CCN(CCO)CC1` [(23)], the inhibition in vivo at 300 mg/kg in series [1] was 93.2%. In series [5], the LD50 at 168 h came to 4000 mg/kg. Moreover, the “Number of dead animals/number of animals used” value in series [6] (dose 1.3 g/kg) is on record as 0/3; in [6] (dose 4.0 g/kg) it was 2/4; in series [6] (dose 6.6 g/kg), 3/3.

`CCN1CCC(OC(=O)CCC=C(C)CCC=C(C)CCC=C(C)C)CC1` [(24), N-ethyl-4-farnesylacetoxy-piperidine]: the inhibition in vivo at 300 mg/kg in [1] was 76.6%.

As to `CC(C)=CCCC(C)=CCCC(C)=CCCC(=O)OCC1CCCCN1C` (stereo not shown) [(26)], the inhibition in vivo at 300 mg/kg in series [1] came out at 47.9%.

Turning to `CC(C)=CCCC(C)=CCCC(C)=CCCC(=O)OCC=C(C)CCC=C(C)C` [Geranyl farnesylacetate, 3,7-dimethyl-2,6-octadienyl 5,9,13-trimethyl-4,8,12-tetradecatrienoate], the inhibition in vivo at 300 mg/kg in series [1] turned out to be 6.1%. Further, in series [2], the Prevention ratio amounted to 32.0%. The median lethal dose (LD50) result in series [8] and in series [9] was “more than 8 g/kg” each time. The “antiulcer / antiulcerogenic activity (in words)” value in series [10] was “high antiulcerogenic activity”.

The record behind these values is patent US4289786A, “Farnesylacetic acid ester derivatives” (Kuraray Co., Ltd., priority 1978, dated 1981).
